# According to ChEMBL document CHEMBL3870327, “Thioxylated cyclosporin A for studying protein-drug interactions” (Bioorg Med Chem Lett, 2016):
# Active and inactive are the calls of the source. The calls are words filed in the database; no cut-off is given here. *1 amine or outer side, *2 acyl side, *3 side chain or, on linkers, in order; H or OH if unused. Where a SMILES comes first, the peptide text is derived from it. [ ]: non-standard residue; d: D form. X1 = CC(C)C[C@@H](C(=S)N[C@H](C(=O)[*:2])C(C)C)N(C)[*:1]; AlaΨ(CSNH)dAla = C[C@H](N[*:1])C(=S)N[C@H](C)C(=O)[*:2]; MeBmt = C/C=C/C[C@@H](C)[C@@H](O)[C@H](NC)C(=O)O; NMeL = CN[C@@H](CC(C)C)C(=O)O; NMeV = CN[C@H](C(=O)O)C(C)C; Abu = CC[C@H](N)C(=O)O; Sar = CNCC(=O)O
# Experiments:
# [1] = biological target: T1, Peptidyl-prolyl cis-trans isomerase A (Homo sapiens, UniProt P62937); test: Binding affinity to Cyp18 (unknown origin) assessed as association rate constant of fast phase by stopped flow method
# Target sequence in this assay (P62937 whole entry, looked up): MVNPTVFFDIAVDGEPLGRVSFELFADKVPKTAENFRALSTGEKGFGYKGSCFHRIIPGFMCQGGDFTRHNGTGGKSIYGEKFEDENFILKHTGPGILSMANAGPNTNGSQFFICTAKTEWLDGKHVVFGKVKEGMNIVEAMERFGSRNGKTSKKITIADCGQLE
# [2] = biological target: T1, Peptidyl-prolyl cis-trans isomerase A; test: Binding affinity to recombinant His-tagged Cyp18 (unknown origin) expressed in Escherichia coli BL21(DE3) assessed as dissociation rate constant in presence of 20-fold excess of cyclosporin A by fluorescence assay
# Target sequence in this assay (P62937 whole entry, looked up): as above
# [3] = biological target: T1, Peptidyl-prolyl cis-trans isomerase A; test: Binding affinity to recombinant His-tagged Cyp18 (unknown origin) expressed in Escherichia coli BL21(DE3) assessed as inhibition of recombinant human His6-tagged calcineurin alpha phosphatase actvity using RII phosphopeptide as substrate by measuring amount of free phosphate at 10 uM preincubated for 20 mins followed by substrate addition measured after 30 mins in presence of human calmodulin by malachite green dye-based spectrophotometry relative to control
# Target sequence in this assay (P62937 whole entry, looked up): as above
# [4] = biological target: T1, Peptidyl-prolyl cis-trans isomerase A; test: Binding affinity to Cyp18 (unknown origin) by fluorescence assay
# Target sequence in this assay (P62937 whole entry): as the sequence (P62937 whole entry, looked up) above
# [5] = biological target: T1, Peptidyl-prolyl cis-trans isomerase A; test: Binding affinity to recombinant His-tagged Cyp18 (unknown origin) expressed in Escherichia coli BL21(DE3) by fluorescence analysis
# Target sequence in this assay (P62937 whole entry, looked up): as above
# [6] = biological target: T1, Peptidyl-prolyl cis-trans isomerase A; test: Inhibition of recombinant His-tagged Cyp18 (unknown origin) expressed in Escherichia coli BL21(DE3) up to 1000 nM
# Target sequence in this assay (P62937 whole entry, looked up): as above
# [7] = biological target: T1, Peptidyl-prolyl cis-trans isomerase A; test: Binding affinity to recombinant His-tagged Cyp18 (unknown origin) expressed in Escherichia coli BL21(DE3) assessed as blue shift by UV absorbance method
# Target sequence in this assay (P62937 whole entry, looked up): as above
K [1],K [2],Activity [3],Kd [4],Activity [5],inhibition [6],Activity [7],SMILES
8.34 ×10⁶ /M/s,6.32 ×10⁻² /s,Active,8.2 nM,Active,Active,Active,"C/C=C/C[C@@H](C)[C@@H](O)[C@H]1C(=O)N[C@@H](CC)C(=O)N(C)CC(=O)N(C)[C@@H](CC(C)C)C(=O)N[C@@H](C(C)C)C(=O)N(C)[C@@H](CC(C)C)C(=O)N[C@@H](C)C(=S)N[C@H](C)C(=O)N(C)[C@@H](CC(C)C)C(=O)N(C)[C@@H](CC(C)C)C(=O)N(C)[C@@H](C(C)C)C(=O)N1C (HELM PEPTIDE1{[Abu].[Sar].[meL].V.[meL].[C[C@H](N[*:1])C(=S)N[C@H](C)C(=O)[*:2]].[meL].[meL].[meV].[C/C=C/C[C@@H](C)[C@@H](O)[C@@H](C(=O)[*:2])N(C)[*:1]]}$PEPTIDE1,PEPTIDE1,1:R1-10:R2$$$V2.0)"
,,Active,,Active,Active,Active,C/C=C/C[C@@H](C)[C@@H](O)[C@H]1C(=O)N[C@@H](CC)C(=O)N(C)CC(=O)N(C)[C@@H](CC(C)C)C(=S)N[C@@H](C(C)C)C(=O)N(C)[C@@H](CC(C)C)C(=O)N[C@@H](C)C(=O)N[C@H](C)C(=O)N(C)[C@@H](CC(C)C)C(=O)N(C)[C@@H](CC(C)C)C(=O)N(C)[C@@H](C(C)C)C(=O)N1C
,,Active,,Active,Active,Active,C/C=C/C[C@@H](C)[C@@H](O)[C@H]1C(=O)N[C@@H](CC)C(=O)N(C)CC(=O)N(C)[C@@H](CC(C)C)C(=S)N[C@@H](C(C)C)C(=O)N(C)[C@@H](CC(C)C)C(=O)N[C@@H](C)C(=S)N[C@H](C)C(=O)N(C)[C@@H](CC(C)C)C(=O)N(C)[C@@H](CC(C)C)C(=O)N(C)[C@@H](C(C)C)C(=O)N1C (cyclo([Abu][Sar][X1][NMeL][AlaΨ(CSNH)dAla][NMeL][NMeL][NMeV][MeBmt]))
